Reference: patent US4885283A, “Phosphinic acid derivatives” (Hoffmann-La Roche Inc., priority 1986, dated 1989)

Key:
[1] = target: T1, collagenase obtained from a culture of human synovial fibroblasts (Homo sapiens, UniProt P03956); assay: in vitro inhibition of collagenase (microtitre plate assay, 14C-acetylated collagen type I from rat tail tendons as substrate); format: biochemical; conditions: human synovial fibroblast collagenase, trypsin-activated; 14C-acetylated collagen type I substrate
T1 construct: endogenous in cells; host or cells: culture of human synovial fibroblasts (conditioned medium)
T1 sequence (P03956 100-469): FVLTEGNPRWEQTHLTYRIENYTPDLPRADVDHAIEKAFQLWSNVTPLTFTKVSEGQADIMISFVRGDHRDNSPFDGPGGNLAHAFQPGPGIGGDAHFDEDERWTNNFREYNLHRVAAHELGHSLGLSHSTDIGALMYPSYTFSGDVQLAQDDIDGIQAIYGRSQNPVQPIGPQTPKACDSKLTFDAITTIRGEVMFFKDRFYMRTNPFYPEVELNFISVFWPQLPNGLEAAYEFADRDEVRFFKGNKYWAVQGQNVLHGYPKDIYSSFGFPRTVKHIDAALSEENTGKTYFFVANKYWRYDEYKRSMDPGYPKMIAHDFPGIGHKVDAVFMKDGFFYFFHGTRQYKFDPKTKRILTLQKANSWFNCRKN
Procedure: Collagenase activity was measured using ^14 C-acetylated collagen type I from rat tail tendons as the substrate and employing the microtitre plate assay method of Johnson-Wint, B. Anal. Biochem. (1980), 104, 175. The IC50 is that concentration of a compound of formula I of the invention in the enzyme digestion which reduces substrate cleavage and solubilization to 50% of that achieved by the enzyme alone.
The results obtained in the foregoing test with representative compounds of this invention are compiled in the Table I hereinafter: […]

female rats = assay: in vivo type II collagen/Freund's incomplete adjuvant rat test: hind paw inflammation and radiological change; conditions: 20 mg kg^-1 twice daily for 12 days via jugular vein catheter
Procedure: Groups of female rats received an intradermal injection into the shaved backs of 10×0.1 ml of an emulsion of type II collagen/Freund's incomplete adjuvant. Ten days later the test compound was administered twice daily at a dosage of 20 mg kg^-1 via indwelling jugular vein catheters; dosing was continued for 12 days. Groups of rats which received the intradermal injection, but which were not treated with test compounds, served as the control. The incidence of hind paw inflammation was assessed visually at intervals throughout the test and was expressed as the proportion of the group showing signs of erythema and/or swelling. Radiological change in the ankle region of the hind paws was assessed at the termination of the test and was quantified using an arbitrary scale of from 0=normal to 6=severe change, results being expressed as group means. Statistical analysis was performed using the Mann-Whitney "U" test.

Row | Structure (SMILES) | IC50 [1] | Inflammation day 4 (female rats; proportion of group showing erythema and/or swelling of hind paw, Control 8/11) | Radiological scores, Tarsus (female rats; scale 0=normal to 6=severe change, group mean at termination, Control 1.75 ± 0.45) | Radiological scores, Talus (female rats; scale 0=normal to 6=severe change, group mean at termination, Control 2.28 ± 0.53)
1 | CC(C)C[C@@H](CP(=O)(O)Cn1c(=O)[nH]c2ccccc2c1=O)C(=O)N[C@@H]1CCCCCCCCCCNC1=O (single isomer, unassigned) [Compound E, [[1,4-dihydro-2,4-dioxo-3(2H)-quinazolinyl]methyl][(R or S)-4-methyl-2-[[(R or S)-2-oxo-3-azacyclotridecyl]carbamoyl]pentyl]phosphinic acid] | 220 nM | – | – | –
2 | CC(C)CC(CP(=O)(O)CN1C(=O)c2cccc3cccc(c23)C1=O)C(=O)NC1CCCCCCCCCCNC1=O (single isomer, unassigned) [Compound D, [(R or S)-4-methyl-2-[[(R or S)-2-oxo-3-azacyclotridecyl]carbamoyl]pentyl](1,8-naphthalenedicarboximidomethyl)phosphinic acid] | 110 nM | 3/12 | 0.64 ± 0.37 | 0.86 ± 0.34
3 | CNC(=O)[C@H](CC(C)C)NC(=O)C(CC(C)C)CP(=O)(O)CN1C(=O)c2cccc3cccc(c23)C1=O (stereo partly drawn) [Compound C, [(RS)-4-methyl-2-[[(S)-3-methyl-1-(methylcarbamoyl)butyl]carbamoyl]pentyl](1,8-naphthalendicarboximidomethyl)phosphinic acid] | 160 nM | – | – | –
4 | CNC(=O)[C@H](CC(C)C)NC(=O)C(CC(C)C)CP(=O)(O)CN1C(=O)c2cccc(N)c2C1=O (mixture of isomers) [Compound B, [(3-aminophthalimido)methyl][(RS)-4-methyl-2-[[(S)-3-methyl-1-(methylcarbamoyl)butyl]carbamoyl]pentyl]phosphinic acid] | 600 nM | – | – | –
5 | CC(C)CC(CP(=O)(O)CNC(=O)[C@H](CC(C)C)NC(=O)[C@@H]1CCCN1C(=O)OCc1ccccc1)C(=O)N[C@@H](CC(C)C)C(=O)N[C@@H](C)C(=O)O (single isomer, unassigned) [Compound A, N-[N-[(R or S)-2-[[[[[N-[1-[(benzyloxy)carbonyl]-L-prolyl]-L-leucyl]amino]methyl]hydroxyphosphinyl]methyl]-4-methylvaleryl]-L-leucyl]-L-alanine] | 56 nM | – | – | –
